Where two headings read alike, the source gives them in different places.
Legend:
[1] = tested on: LB931; test: Sensitivity to antibiotic substances by the SIR system; type: cell-based, Lactobacillus plantarum; set-up: key to Indication: S means sensitive; R strands for resistant; conditions: for Indication / Zone: SIR system
Description: The sensitivity to antibiotic substances was also determined using the SIR system. In table VI below S means sensitive and R strands for resistant.

[2] = tested on: Lactobacillus plantarum LB931; test: MIC of antibiotics by E-test; type: cell-based
Description: MIC values of Lactobacillus plantarum LB931 were determined using E-test (Brown et al. J Antimicrob Chemother 1991;27:185-190).

[3] = tested on: LB931; test: MIC test for the spermacidal agent Tergitol NP-9; type: cell-based, Lactobacillus plantarum; conditions: for Cfu/ml LB931: 18 h, 37 °C, inoculated 1.0×10^7 cfu
Description: MIC tests were also carried out for the spermacidal agent Tergitol. LB931 was grown on MRS agar in 5% CO2, 37° C. for 48 h. The bacteria were inoculated in 3 ml MRS broth and incubated for 10 h under the same conditions as previously 1.5% of the culture was reinoculated to 3 ml MRS broth and was incubated under the same conditions for 18 h. NP-9 Tergitol (Sigma, US) Lot 47F0002 was diluted in MRS broth having a temperature of 37° C. (reduced viscosity) to a stock solution of 40%. […] 10 μl bacterial culture was added to each solution. The blank solution was mixed and added to MRS agar plates. The plates were grown in 5% CO2, 37° C. for 48 h for determining the cell density. The rest of the solutions were incubated without mixing in 5% CO2, 37° C. for 18 h. The solution containing 30% and 40% NP-9 were diluted in 37 ° C. MRS broth (reduced viscosity). All solutions were vigorously mixed; diluted in sterile 0.9% NaCl and added to MRS agar plates The plates were incubated in 5% CO2, 37° C. for 48 h for determining cfu/ml.
Inoculated amount of LB931 was 1.0×10^7 .cfu

[4] = Lactiplantibacillus plantarum, LB931, E-test, read-out: MIC

Compound | Indication [1] | Zone [1] [mm] | further results
NCC[C@H](O)C(=O)N[C@@H]1C[C@H](N)[C@@H](O[C@H]2O[C@H](CN)[C@@H](O)[C@H](O)[C@H]2O)[C@H](O)[C@H]1O[C@H]1O[C@H](CO)[C@@H](O)[C@H](N)[C@H]1O [Amikacin] | S | 30 | 
CC1(C)S[C@@H]2[C@H](NC(=O)[C@H](N)c3ccccc3)C(=O)N2[C@H]1C(=O)O [Ampicillin] |  |  | MIC [2, 4]: 0.19 µg/mL
C[C@H]1[C@H](NC(=O)/C(=N\OC(C)(C)C(=O)O)c2csc(N)n2)C(=O)N1S(=O)(=O)O [Aztreonam] | R | 0 | 
CC1(C)S[C@@H]2[C@H](NC(=O)Cc3ccccc3)C(=O)N2[C@H]1C(=O)O [Benzylpenicillin] |  |  | MIC [2, 4]: 0.5 µg/mL
CC1=C(C(=O)O)N2C(=O)[C@@H](NC(=O)[C@H](N)c3ccc(O)cc3)[C@H]2SC1 [Cefadroxil] | S | 24 | 
CC(=O)OCC1=C(C(=O)O)N2C(=O)[C@@H](NC(=O)Cc3cccs3)[C@H]2SC1 [Cefalotin] | S | 22 | 
CO/N=C(\C(=O)N[C@@H]1C(=O)N2C(C(=O)[O-])=C(C[n+]3cccc4c3CCC4)CS[C@H]12)c1csc(N)n1 [Cefipirome] | S | 47 | 
CO/N=C(\C(=O)N[C@@H]1C(=O)N2C(C(=O)O)=C(COC(C)=O)CS[C@H]12)c1csc(N)n1 [Cefotaxime] |  |  | MIC [2, 4]: 0.094 µg/mL
CC(C)(O/N=C(\C(=O)N[C@@H]1C(=O)N2C(C(=O)[O-])=C(C[n+]3ccccc3)CS[C@H]12)c1csc(N)n1)C(=O)O [Ceftazidime] | S | 35 | 
CO/N=C(\C(=O)N[C@@H]1C(=O)N2C(C(=O)O)=C(COC(N)=O)CS[C@H]12)c1ccco1 [Cefuroxime] |  |  | MIC [2, 4]: 0.38 µg/mL
CCC[C@@H]1C[C@@H](C(=O)N[C@@H]([C@H]2O[C@H](SC)[C@H](O)[C@@H](O)[C@H]2O)[C@H](C)Cl)N(C)C1 [Clindamycin] | S | 35 | 
CC[C@H]1OC(=O)[C@H](C)[C@@H](O[C@H]2C[C@@](C)(OC)[C@@H](O)[C@H](C)O2)[C@H](C)[C@@H](O[C@@H]2O[C@H](C)C[C@H](N(C)C)[C@H]2O)[C@](C)(O)C[C@@H](C)C(=O)[C@H](C)[C@@H](O)[C@]1(C)O [Erythromycin] |  |  | MIC [2, 4]: 0.25 µg/mL
C[C@@H](O)[C@H]1C(=O)N2C(C(=O)O)=C(SCCN=CN)C[C@H]12 [Imipenem] |  |  | MIC [2, 4]: 0.016 µg/mL
CC1(C)S[C@@H]2[C@H](/N=C/N3CCCCCC3)C(=O)N2[C@H]1C(=O)O [Mecillinam] | R | 0 | 
Cc1ncc([N+](=O)[O-])n1CCO [Metronidazole] |  |  | MIC [2, 4]: > 32 µg/mL
CCn1cc(C(=O)O)c(=O)c2ccc(C)nc21 [Nalidixin acid] | R | 0 | Sensitivity of LB931 in words [1]: resistant
CCN[C@@H]1C[C@H](N)[C@@H](O[C@H]2OC(CN)=CC[C@H]2N)[C@H](O)[C@H]1O[C@H]1OC[C@](C)(O)[C@H](NC)[C@H]1O [Netilmycin] | R | 0 | 
O=C1CN(/N=C/c2ccc([N+](=O)[O-])o2)C(=O)N1 [Nitrofuantin] | S | 36 | 
CCn1cc(C(=O)O)c(=O)c2cc(F)c(N3CCNCC3)cc21 [Norfloxacin] | R | 0 | Sensitivity of LB931 in words [1]: resistant
Cc1onc(-c2ccccc2)c1C(=O)N[C@@H]1C(=O)N2[C@@H]1SC(C)(C)[C@@H]2C(=O)O [Oxacillin] | R | 0 | 
CN(C)[C@@H]1C(=O)C(C(N)=O)=C(O)[C@@]2(O)C(=O)C3=C(O)c4c(O)cccc4[C@@](C)(O)[C@H]3C[C@@H]12 [Tetracyclin] |  |  | MIC ([2]; E-test): 2 µg/mL
NC[C@H]1O[C@H](O[C@H]2[C@H](O)[C@@H](O[C@H]3O[C@H](CO)[C@@H](O)[C@H](N)[C@H]3O)[C@H](N)C[C@@H]2N)[C@H](N)C[C@@H]1O [Tobramycin] | S | 32 | 
COc1cc(Cc2cnc(N)nc2N)cc(OC)c1OC [Trimetoprim] |  |  | MIC ([2]; E-test): 0.016 µg/mL
CN[C@H](CC(C)C)C(=O)N[C@H]1C(=O)N[C@@H](CC(N)=O)C(=O)N[C@H]2C(=O)N[C@H]3C(=O)N[C@H](C(=O)N[C@H](C(=O)O)c4cc(O)cc(O)c4-c4cc3ccc4O)[C@H](O)c3ccc(c(Cl)c3)Oc3cc2cc(c3O[C@@H]2O[C@H](CO)[C@@H](O)[C@H](O)[C@H]2O[C@H]2C[C@](C)(N)[C@H](O)[C@H](C)O2)Oc2ccc(cc2Cl)[C@H]1O [Vancomycin] |  |  | Sensitivity of LB931 in words [2]: resistant; MIC ([2]; Lactiplantibacillus plantarum, LB931): > 256 µg/mL
Gentamycin |  |  | MIC ([2]; E-test): 0.25 µg/mL
Mecillinam/Ampicillin | S | 41 | 
Piperacin/Tazobactam |  |  | MIC ([2]; E-test): 2 µg/mL
Tergitol NP-9 |  |  | Cfu/ml LB931 ([3]; 1% Tergitol NP-9 in MRS broth): 2.5 × 10^9 Cfu/ml; Cfu/ml LB931 ([3]; 5% Tergitol NP-9 in MRS broth): 2.5 × 10^9 Cfu/ml; Cfu/ml LB931 ([3]; 10% Tergitol NP-9 in MRS broth): 1.6 × 10^9 Cfu/ml; Cfu/ml LB931 ([3]; 20% Tergitol NP-9 in MRS broth): 1.4 × 10^9 Cfu/ml; Cfu/ml LB931 ([3]; 30% Tergitol NP-9 in MRS broth): 1.0 × 10^9 Cfu/ml; Cfu/ml LB931 ([3]; 40% Tergitol NP-9 in MRS broth): 6.9 × 10^7 Cfu/ml; Survival of LB931 in tergitol NP-9 in words ([3]; up to 40% tergitol NP-9): survive well
Tri/sulfamethoazole | S | 43 | 

Reference: US6761885B1, “Strain of Lactobacillus plantarum and uses thereof” (SCA Hygiene Products AB, priority 1998, dated 2004)
